Assays:
Format in all cases: cell-based
[1] = tested on: NDRG1 mRNA; assay: Hormone treatment of LNCaP cells, NDRG1 mRNA by TAQMAN quantitative RT-PCR; conditions: for Induction of NDRG1 mRNA: LNCaP cells, 12 hours, 10 nM 17β-estradiol or 10 nM DPN; for NDRG1 mRNA expression: serum-starved LNCaP cells, 1 nM R1881 or 10 nM E2, 3, 12 and 24 h, fold change against vehicle (Ethanol), normalized against TCFL1
Experimental: (§1) FIG. 6. Hormone treatment of LNCaP cells induced SLC45A3 and NDRG1 mRNA expression. SLC45A3 (A and C) or NDRG1 (B and D) mRNA expression was induced upon stimulation with synthetic androgen (R1881) and 17β-estradiol (E2). Serum-starved LNCaP cells were stimulated with 1 nM R1881, 1 nM R1881 in combination with 10 μM Flutamide (A and B), 10 nM E2 or 10 nM diarylpropionitrile (DPN) (C and D) for 3, 12 and 24 h. Samples were run in triplicate and normalized against TCFL1. Columns indicate the mean fold change of induction of three biological replicates against vehicle (Ethanol) only treated cells for the respective time points±SEM.
(§2) Hormone Treatment of LNCaP—The prostate cancer cell line LNCaP was obtained from ATCC (Manassas, Va.; cat.#CRL-1740) and maintained according to the suppliers instructions. For hormonal treatment, cells were plated (500,000 cells/10 cm^2) in the presence of complete growth medium supplemented with 1% Penicillin/Streptomycin. Cells were starved for 48 h in charcoal-stripped (CS) medium (RPMI-1640 1×, 5% charcoal-stripped […], 1% Penicillin/Streptomycin) and then treated with R1881 (1 nM), 17β-estradiol (10 nM), diarylpropionitrile (DPN, 10 nM) or ethanol vehicle for 3, 12, and 24 hours. RNA was extracted using the TRIzol Reagent (Invitrogen, Carlsbad, Calif.), subjected to DNase treatment (DNA-free™ Kit, Applied Biosystems) according to the manufacturer's instructions. To test for the specificity of androgen-stimulation, cells were treated with10 μM Flutamide for 2 hours and then treated with R1881 as described above. TAQMAN expression assays (Applied Biosystems) were used to quantify relative levels of SL45A3, NDRG1, PSA (KLK3) and IGF1R.

[2] = tested on: SLC45A3 mRNA; assay: Hormone treatment of LNCaP cells, SLC45A3 mRNA by TAQMAN quantitative RT-PCR; conditions: for Induction of SLC45A3 mRNA: LNCaP cells, 3 hours, 10 nM 17β-estradiol or 10 nM DPN; for SLC45A3 mRNA expression: serum-starved LNCaP cells, 1 nM R1881 or 10 nM E2, 3, 12 and 24 h, fold change against vehicle (Ethanol), normalized against TCFL1
Experimental: as §1, §2

[3] = tested on: IGF2R mRNA; assay: Hormone treatment of LNCaP cells, IGF2R mRNA by TAQMAN quantitative RT-PCR; conditions: serum-starved LNCaP cells; 1 nM R1881 or 10 nM E2; 3, 12 and 24 h; fold change against vehicle (Ethanol), normalized against TCFL1
Experimental: (§3) FIG. 7. Androgen and 17β-estradiol (E2) signaling of known target genes in LNCaP cells. IGF2R (A) and PSA (B) mRNA expression was induced upon stimulation with synthetic androgen (R1881) and E2. Serum-starved LNCaP cells were stimulated with 1 nM R1881, 1 nM R1881 in combination with 10 μM Flutamide, 10 nM E2 or 10 nM diarylpropionitrile (DPN) for 3, 12 and 24 h. Total RNA was extracted and used for quantitative RT-PCR using TAQMAN assay. Samples were run in triplicate and normalized against TCFL1. Columns indicate the mean fold change of induction of three biological replicates against vehicle (Ethanol) only treated cells for the respective time points±SEM.
as §2, with “RNA was extracted using the TRIzol Reagent (Invitrogen, Carlsbad, Calif.), subjected to DNase treatment (DNA-free™ Kit, Applied Biosystems) according to the manufacturer's instructions. To test for the specificity of androgen-stimulation, cells were treated with10 μM Flutamide for 2 hours and then treated with R1881 as described above.” left out

[4] = tested on: PSA (KLK3) mRNA; assay: Hormone treatment of LNCaP cells, PSA mRNA by TAQMAN quantitative RT-PCR; conditions: serum-starved LNCaP cells; 1 nM R1881 or 10 nM E2; 3, 12 and 24 h; fold change against vehicle (Ethanol), normalized against TCFL1
Experimental: as §3
as §2, with “RNA was extracted using the TRIzol Reagent (Invitrogen, Carlsbad, Calif.), subjected to DNase treatment (DNA-free™ Kit, Applied Biosystems) according to the manufacturer's instructions. To test for the specificity of androgen-stimulation, cells were treated with10 μM Flutamide for 2 hours and then treated with R1881 as described above.” left out

| Structure (SMILES) | Induction of NDRG1 mRNA [1] | Induction of SLC45A3 mRNA [2] | IGF2R mRNA expression [3] | NDRG1 mRNA expression [1] | SLC45A3 mRNA expression [2] | PSA mRNA expression [4] |
| --- | --- | --- | --- | --- | --- | --- |
| N#CC(Cc1ccc(O)cc1)c1ccc(O)cc1 (stereo not drawn) [DPN, diarylpropionitrile] | not | not | – | – | – | – |
| C[C@]1(O)CC[C@H]2[C@@H]3CCC4=CC(=O)CCC4=C3C=C[C@@]21C [R1881] | – | – | induced | induced | induced | induced |
| C[C@]12CC[C@@H]3c4ccc(O)cc4CC[C@H]3[C@@H]1CC[C@@H]2O [17β-estradiol] | observed | observed | induced | induced | induced | induced |
